Consider 1 molecule from US6432426B1, “Non-staining topical iodine composition and method” (Symbollon Corporation, priority 1998, dated 2002).

One series deals with Staphylococcus aureus. Nature of the series: Residual biocidal effect of skin associated iodine, colony counts from inoculated treated skin. It is filed as in vivo. Conditions: solution with 700 ppm of triiodide, but no molecular iodine. The protocol: 5. […] […] […] […] The samples were contacted with the arm for 30 seconds. After contact the treated arm was flushed with water for 15 seconds and dried.
[…] Two hours after contact each area was inoculated with […] of a 1:100 dilution of a 48 hour soy-trypticase culture of Staphylococcus aureus. Ninety minutes after inoculation the mouths of sterile 25 mL flasks filled with 2 mL of soy-trypticase with 2% Tween 80 were placed over the marked skin areas. The flasks were gently shaken for 1 minute and a colony count was performed on blood agar plates after incubation at 37° C. for 48 hours. The residual biocidal effect from skin associated molecular iodine was determined by subtracting the log of the colony counts from the areas of skin that were contacted with iodine from the controls (log colony count from untreated skin). The average difference in colony counts between treated and untreated skin was 2.4 logs.

In another series the test system is epidermis. As to the kind of experiment: Staining of epidermis by triiodide solutions, 10 second contact on forearm. It is filed as in vivo, human. The protocol:
3. […] Solutions of triiodide were prepared by dissolving elemental iodine into oxygen-free solutions of sodium iodide that were at a pH of 4.5. A molar excess of iodide was used. Based on thiosulfate titrations, potentiometric measurements of iodine and ion selective electrode measurements of iodide ion, essentially all of the elemental iodine was converted into triiodide. Solutions of triiodide were made that varied from 100 to 25,000 ppm. Four mL of each sample was transferred to a 1.0 dram vial (Kimble catalog #60931) at room temperature and placed on the forearm of a subject and then the forearm was inverted to initiate contact of the sample with the triiodide solution. The samples were held on the arm for 10 seconds.
The contact areas were checked for stains at 10 minutes and 3 hours after exposure.

A further series concerns Human Skin. Nature of the series: Coloration of human skin by a 30 second exposure (vial contact on forearm); hue by Pantone chips, intensity against Brown No. 3 dye. It is filed as in vivo. The source says: 1. […] Elemental iodine was weighed on an analytical balance and dissolved in one liter of water that had been acidified with 2 drops of 0.1N hydrochloric acid. The concentration of molecular iodine in the water was confirmed by potentiometric analysis (Gottardi, W., 1983. Fresenius Z. Anal. Chem., Vol. 314, pages 582-585). Samples were also titrated with thiosulfate to determine that at least 95% of the theoretical yield of titratable iodine was in the form of molecular iodine as opposed to triiodide. The concentration of molecular iodine was varied from 25 ppm to 330 ppm.
One dram vials (Kimble catalog #60931) were used to deliver 4 mL of the room temperature iodine solutions samples. The vials were placed on the forearm of a subject and then the forearm was inverted to initiate contact of the sample with the iodine solution. The contact area was a circle with a diameter of 1.3 cm. The samples were held on the arm for 30 seconds at room temperature. Three different subjects were used for this experiment. Immediately after the 30 second contact time the arms of the subjects were examined for stains; 10 minutes after the end of the contact time all subjects arms were examined for stains again..
For the purposes of this application, two different parameters were used to characterize the color and intensity of the term stain. The hue of the color imparted to skin was characterized by using the Pantone Color Matching System (Pantone Color Specifier, Pantone Inc., Carlstadt, N.J.) which allows comparison with 1,012 defined colors on two types of paper. Stains from triiodide were matched to the Pantone color chip No. 152C. Short-lived coloration from molecular iodine were matched to the Pantone color chip 1375C.
The intensity of any coloration on skin was characterized by applying an aqueous solution of known concentrations of a food dye, Brown No. 3 (Crompton & Knowles, Mahwah, N.J. —Code DP935159), for 10 seconds using the method described above for application of iodine. Brown No. 3 was applied to the skin at concentrations that ranged from 500 ppm to 30 ppm and the intensity of the color from Brown No. 3 was compared to the intensity of coloration from iodine compositions. For instance, the intensity of color 10 minutes after a 30 second contact with a 600 ppm aqueous triiodide solution was equivalent to the color from a 10 second exposure to a 250 ppm Brown No. 3 solution. In contrast, the intensity of color 10 minutes after a 30 second contact with a 300 ppm aqueous molecular iodine solution was equivalent to the color from a ten second exposure to a 30 ppm Brown No. 3 solution which is barely discernible.

Structures are written as SMILES.

As to `I[IH]I` [triiodide, reference compound], the “Reduction in the concentration of pathogens” value with Staphylococcus aureus is “no measurable reduction”. Besides, in the series with epidermis (100 ppm triiodide), the “Staining at three hours” value was “staining was present at three hours but it was not visibly noticeable”. The Degree of color entry in the series with epidermis (700 ppm triiodide, 3 hours after contact) is listed as “minimally discernable”. The “Coloration of the epidermis 3 hours after contact” value in the series with epidermis (triiodide at concentrations from 25,000 to 700 ppm) is “A definite coloration of the epidermis was evident”. In addition, the “Intensity of color on skin, equivalent Brown No. 3 solution (10 second exposure)” value in the series on Human Skin (10 minutes after a 30 second contact with a 600 ppm aqueous triiodide solution) was 250 ppm. For the same molecule, the “Hue of the color imparted to skin, matched Pantone color chip” value with Human Skin (Pantone Color Matching System) was found to be 152C.
